# d = 2'-deoxy (DNA); m = 2'-O-methyl
# Key:
# [1] = test system: human colon cancer HCT116 cells; assay: MTT assay of cell proliferation; assay type: cell-based; settings: HCT-116, 72 hours
# Protocol: Two thousand (2,000) human colon cancer HCT116 cells (ATCC, Manassas, Va. were used in an MTT (3-[4,5-dimethylthiazol-2-yl]-2,5 diphenyl tetrazolium bromide) assay to quantitatively determine cell proliferation and cytotoxicity. Typically, HCT116 cells were plated into each well of the 96-well tissue culture plate and left overnight to attach to the plate. Compounds at various concentrations were added into the culture media (final DMSO concentration 1%) and incubated for 72 hours. MTT solution (obtained from Sigma as powder) was added and incubated with the cells for 4 hours at 37° C. in incubator with 5% CO2. During the incubation, viable cells convert MTT to a water-insoluble formazan dye. Solubilizing buffer (50% N,N-dimethylformamide, 20% SDS, pH 4.7) was added to cells and incubated for overnight at 37C in incubator with 5% CO2. Solubilized dye was quantitated by calorimetric reading at […] using a reference of […]. Optical density values were converted to cell number values by comparison to a standard growth curve for each cell line.
# [2] = test system: Human cancer HCT116 cells; assay: cell cycle arrest by FACS; assay type: cell-based; settings: HCT116, 16 hours; concentration to induce a (G2+M)/S ratio of 2.5
# Protocol: Human cancer HCT116 cells were plated at 2×10^5 per 10-cm dish and were left to attach to the dish overnight in the incubator. Cells were treated with small molecule inhibitors at various concentrations (1 uM and 10 uM, typically, dissolved in DMSO) for 16 hours. Cells were harvested by trypsinization and washed once in 1×PBS (phosphate buffered saline). The cells were resuspended in about 200 ul 1×PBS and were fixed by slowly adding 1 ml 70% ethanol at −20° C. and were left at least overnight at −20° C. Fixed cells were centrifuged at low speed (1,000 rpm) for 5 minutes, and the cell pellets were washed again with 1×PBS. Nucleic acids from fixed cells were incubated in a staining solution (0.1% (w/v) glucose in 1×PBS containing 50 ug/ml propidium iodide) (Sigma-Aldridge, Mississauga, Ontario, CA) and RNase A (final 100 units/ml, (Sigma-Aldridge, Mississauga, Ontario, CA) for at least 30 minutes in the dark at 25° C. DNA content was measured by using a fluorescence-activated cell sorter (FACS) machine. Treatment of cells with all HDAC small molecule inhibitors in Table 2 results in a significant accumulation of cancer cell in G2/M phase of the cell cycle and concomitantly reduce the accumulation of cancer cells in S phase of the cell cycle. The ratio of cells in G2/M phase vs. cells in the S. phase was determined. […]
# [3] = test system: cyclin B1 in Human cancer A549 cells; assay: Western blot of cyclin B1 in A549 cells; assay type: cell-based; settings: 48 hours, FIG. 16
# Protocol: (§1) Human cancer A549 cells were treated with AS1, AS2 or MM oligo directed human HDAC1 for 48 hours. Total cell lysates were harvested and analyzed by Western blot using antibodies against human HDAC1, cyclin B1, cyclin A and actin (all from Santa Cruz Biotechnology, Inc., Santa Cruz, Calif.). […] (FIG. 16)
# HMEC [4] = assay: apoptosis, Cell Death Detection ELISA, HMEC; assay type: cell-based, human; settings: OSDN, normal cells
# Protocol: (§2) In order to determine the effect of HDAC OSDNs on cell growth and cell death through apoptosis, A549 or T24 cells, MDAmb231 cells, and HMEC cells (ATCC, Manassas, Va.) were treated with HDAC OSDNs as previously described.
# (§3) For the apoptosis study, cells were analyzed using the Cell Death Detection ELISA^Plus kit (Roche Diagnostic GmBH, Mannheim, Germany) according to the manufacturer's directions. Typically, 10,000 cells were plated in 96-well tissue culture dishes for 2 hours before harvest and lysis. Each sample was analyzed in duplicate. ELISA reading was done using a MR700 plate reader (DYNEX Technology, Ashford, Middlesex, England) at 410 nm. The reference was set at 490 nm.
# A549 [5] = assay: apoptosis, Cell Death Detection ELISA, A549; assay type: cell-based, human; settings: OSDN
# Protocol: as §2, §3
# T24 [6] = assay: apoptosis, Cell Death Detection ELISA, T24; assay type: cell-based, human; settings: OSDN
# Protocol: as §2, §3
# [7] = test system: cyclin A in Human cancer A549 cells; assay: Western blot of cyclin A in A549 cells; assay type: cell-based; settings: 48 hours, FIG. 16
# Protocol: as §1
# human HDAC-1 RNA = assay: antisense screen by Northern blot in T24 cells, HDAC-1; assay type: cell-based; settings: 100 nM, 24 hours
# Protocol: (§4) Briefly, human A549 and/or T24 human bladder carcinoma cells were seeded in 10 cm tissue culture dishes one day prior to oligonucleotide treatment. The cell lines were obtained from the American Type Culture Collection (ATCC) (Manassas, Va.) and were grown under the recommended culture conditions. Before the addition of the oligonucleotides, cells were washed with PBS (phosphate buffered saline). Next, lipofectin transfection reagent (GIBCO BRL Mississauga, Ontario, Calif.), at a concentration of 6.25 μg/ml, was added to serum free OPTIMEM medium (GIBCO BRL, Rockville, Md.), which was then added to the cells. The oligonucleotides to be screened were then added directly to the cells (i.e., one oligonucleotide per plate of cells). Mismatched oligonucleotides were used as controls. The same concentration of oligonucleotide (e.g., 50 nM) was used per plate of cells for each oligonucleotide tested.
# Cells were harvested, and total RNAs were analyzed by Northern blot analysis. Briefly, total RNA was extracted using RNeasy miniprep columns (QIAGEN). Ten to twenty μg of total RNA was run on a formaldehyde-containing 1% agarose gel with 0.5 M sodium phosphate (pH 7.0) as the buffer system. RNAs were then transferred to nitrocellulose membranes and hybridized with the indicated radiolabeled DNA probes. Autoradiography was performed using conventional procedures.
# MDAmb231 [8] = assay: apoptosis, Cell Death Detection ELISA, MDAmb231; assay type: cell-based, human; settings: OSDN
# Protocol: as §2, §3
# human cancer cells = assay: cell growth and apoptosis of human cancer cells; assay type: cell-based; settings: for growth arrest and apoptosis of human cancer cells: text summary of FIGS. 11-13, Tables 4 and 5
# Protocol: as §2, §3
# (§5) Cells were harvested and cell numbers counted by trypan blue exclusion using a hemocytometer. Percentage of inhibition was calculated as (100—AS cell numbers/control cell numbers)%.
# human HDAC-2 RNA = assay: antisense screen by Northern blot in T24 cells, HDAC-2; assay type: cell-based; settings: screened as above (T24 cells, 100 nM, 24 hours)
# Protocol: Twenty-four phosphorothioate ODNs containing sequences complementary to the 5′ or 3′ UTR of the human HDAC-2 gene (GenBank Accession No. U31814) were screened as above. […] HDAC-2 MM was created as a control; compared to the antisense oligo, it contains a 7-base mismatch.
# as §4
# (§6) Cells were harvested, and total RNAs were analyzed by Northern blot analysis. Briefly, total RNA was extracted using RNeasy miniprep columns (QIAGEN). […]
# MDAmb231 [9] = assay: cell growth analysis (trypan blue cell count), MDAmb231; assay type: cell-based, human; settings: 50 nM, 72 hours
# Protocol: as §4, §2, §5
# A549 [10] = assay: cell growth analysis (trypan blue cell count), A549; assay type: cell-based, human; settings: 50 nM, 72 hours
# Protocol: as §4, §2, §5
# T24 [11] = assay: cell growth analysis (trypan blue cell count), T24; assay type: cell-based, human; settings: 50 nM, 72 hours
# Protocol: as §4, §2, §5
# human HDAC-3 RNA = assay: antisense screen by Northern blot in T24 cells, HDAC-3; assay type: cell-based; settings: screened as above (T24 cells, 100 nM, 24 hours)
# Protocol: Twenty-one phosphorothioate ODNs containing sequences complementary to the 5′ or 3′ UTR of the human HDAC-3 gene (GenBank Accession No. AF039703) were screened as above. […] HDAC-3 MM oligonucleotide was created as a control; compared to the antisense oligonucleotide, it contains a 6-base mismatch.
# as §4, §6
# HMEC [12] = assay: cell growth analysis (trypan blue cell count), HMEC; assay type: cell-based, human; settings: 50 nM, 72 hours, normal cells
# Protocol: as §4, §2, §5
# human HDAC-4 RNA = assay: antisense screen by Northern blot in T24 cells, HDAC-4; assay type: cell-based; settings: screened as above (T24 cells, 100 nM, 24 hours)
# Protocol: Seventeen phosphorothioate ODNs containing sequences complementary to the 5′ or 3′ UTR of the human HDAC-4 gene (GenBank Accession No. AB006626) were screened as above. […] HDAC-4 MM1 and MM2 oligonucleotides were created as controls; compared to the antisense oligonucleotides, they each contain a 6-base mismatch.
# as §4, §6
# human HDAC-5 RNA = assay: antisense screen by Northern blot in T24 cells, HDAC-5; assay type: cell-based; settings: screened as above (T24 cells, 100 nM, 24 hours)
# Protocol: Thirteen phosphorothioate ODNs containing sequences complementary to the 5′ or 3′ untranslated regions of the human HDAC-5 gene (GenBank Accession No. AF039691) were screened as above.
# as §4
# Cells were harvested, and total RNAs were analyzed by Northern blot analysis. Briefly, total RNA was extracted using RNeasy miniprep columns (QIAGEN). Ten to twenty μg of total RNA was run on a formaldehyde-containing 1% agarose gel with 0.5 M sodium phosphate (pH 7.0) as the buffer system. […]
# human HDAC-6 RNA = assay: antisense screen by Northern blot in T24 cells, HDAC-6; assay type: cell-based; settings: screened as above (T24 cells, 100 nM, 24 hours)
# Protocol: Thirteen phosphorothioate ODNs containing sequences complementary to the 5′ or 3′ untranslated regions of the human HDAC-6 gene (GenBank Accession No. AJ011972) were screened as above. […] HDAC-6 MM oligo was created as a control; compared to the antisense oligo, it contains a 7-base mismatch.
# as §4, §6
molecule,measurement,setting,value
CC(/C=C/C(=O)Nc1ccccc1N)=C\C(C)C(=O)c1ccc(N(C)C)cc1 (stereo not drawn) [Compound 1],EC50,[1],3 µM
same,Cell Cycle Arrest EC,[2],2 µM
"HDAC-1 AS1: antisense oligonucleotide to human HDAC1, 5′-GAAACGTGAGGGACTCAGCA-3′ (SEQ ID NO:17) (chemistry not given here)",expression of cyclin B1,[3],repress expression
same,Apoptosis After 48 Hour Treatment HMEC,HMEC [4],− (< = 2x fold over non-specific background)
same,Apoptosis After 48 Hour Treatment A549,A549 [5],+ (2-3X fold)
same,Apoptosis After 48 Hour Treatment T24,T24 [6],− (< = 2x fold over non-specific background)
same,expression of cyclin A,[7],repress expression
same,"antisense activity to human HDAC-1 (RNA expression, Northern blot)",human HDAC-1 RNA,antisense activity
"HDAC-1 AS2: antisense oligonucleotide to human HDAC1, 5′-GGAAGCCAGAGCTGGAGAGG-3′ (SEQ ID NO:18) (chemistry not given here)",expression of cyclin B1,[3],repress expression
same,expression of cyclin A,[7],repress expression
same,"antisense activity to human HDAC-1 (RNA expression, Northern blot)",human HDAC-1 RNA,antisense activity
"HDAC-2 AS: antisense oligonucleotide to human HDAC2, 5′-GCTGAGCTGTTCTGATTTGG-3′ (SEQ ID NO:20) (chemistry not given here)",Apoptosis After 48 Hour Treatment MDAmb231,MDAmb231 [8],− (< = 2x fold over non-specific background)
same,Apoptosis After 48 Hour Treatment HMEC,HMEC [4],− (< = 2x fold over non-specific background)
same,cancer cell growth inhibition,human cancer cells,minimal effect
same,"antisense activity to human HDAC-2 (RNA expression, Northern blot)",human HDAC-2 RNA,antisense activity
same,Growth Inhibition (AS vs. MM) MDAmb231,MDAmb231 [9],− (no inhibition)
same,Apoptosis After 48 Hour Treatment A549,A549 [5],− (< = 2x fold over non-specific background)
same,Apoptosis After 48 Hour Treatment T24,T24 [6],− (< = 2x fold over non-specific background)
"HDAC-3 AS: antisense oligonucleotide to human HDAC3, 5′-CGCTTTCCTTGTCATTGACA-3′ (SEQ ID NO:22) (chemistry not given here)",Apoptosis After 48 Hour Treatment MDAmb231,MDAmb231 [8],− (< = 2x fold over non-specific background)
same,Apoptosis After 48 Hour Treatment HMEC,HMEC [4],− (< = 2x fold over non-specific background)
same,growth arrest and apoptosis of human cancer cells,human cancer cells,no effect
same,Growth Inhibition (AS vs. MM) A549,A549 [10],− (no inhibition)
same,Growth Inhibition (AS vs. MM) MDAmb231,MDAmb231 [9],− (no inhibition)
same,Apoptosis After 48 Hour Treatment A549,A549 [5],− (< = 2x fold over non-specific background)
same,Growth Inhibition (AS vs. MM) T24,T24 [11],− (no inhibition)
same,Apoptosis After 48 Hour Treatment T24,T24 [6],− (< = 2x fold over non-specific background)
same,"antisense activity to human HDAC-3 (RNA expression, Northern blot)",human HDAC-3 RNA,antisense activity
same,Growth Inhibition (AS vs. MM) HMEC,HMEC [12],− (no inhibition)
"HDAC-4 AS2: antisense oligonucleotide to human HDAC4, 5′-TACAGTCCATGCAACCTCCA-3′ (SEQ ID NO:26) (sugars from the 5' end m4 d12 m4, all phosphorothioate, methylation of C and T or U not given here)","antisense activity to human HDAC-4 (RNA expression, Northern blot)",human HDAC-4 RNA,antisense activity
"HDAC-5 AS: antisense oligonucleotide to human HDAC5, 5′-CTTCGGTCTCACCTGCTTGG-3′ (SEQ ID NO:28) (sugars from the 5' end m4 d12 m4, all phosphorothioate, methylation of C and T or U not given here)","antisense activity to human HDAC-5 (RNA expression, Northern blot)",human HDAC-5 RNA,antisense activity
"HDAC-6 AS: antisense oligonucleotide to human HDAC6, 5′-CAGGCTGGAATGAGCTACAG-3′ (SEQ ID NO:29) (chemistry not given here)",Apoptosis After 48 Hour Treatment MDAmb231,MDAmb231 [8],− (< = 2x fold over non-specific background)
same,Apoptosis After 48 Hour Treatment HMEC,HMEC [4],− (< = 2x fold over non-specific background)
same,"antisense activity to human HDAC-6 (RNA expression, Northern blot)",human HDAC-6 RNA,antisense activity
same,growth arrest and apoptosis of human cancer cells,human cancer cells,no effect
same,Growth Inhibition (AS vs. MM) A549,A549 [10],− (no inhibition)
same,Apoptosis After 48 Hour Treatment A549,A549 [5],− (< = 2x fold over non-specific background)
same,Growth Inhibition (AS vs. MM) T24,T24 [11],− (no inhibition)
same,Apoptosis After 48 Hour Treatment T24,T24 [6],− (< = 2x fold over non-specific background)
same,Growth Inhibition (AS vs. MM) HMEC,HMEC [12],− (no inhibition)

# From patent US20040266718A1, “Inhibition of specific histone deacetylase isoforms” (priority 2001, published 2004)
